Laboratory results published in patent US12433954B2, “Methods of activating anti-CD19 chimeric antigen receptor (CAR) T cells using amphiphilic ligand conjugates comprising CAR-targeting protein sequence motifs” (Massachusetts Institute of Technology, priority 2020, dated 2025).
Ends that are not written are not given here.

Tests used:
FMC63 scFv = experiment: Yeast clone staining with biotinylated FMC63 scFv, Kd by FACS; type: binding, mouse; details: yeast clones, biotinylated FMC63 scFv monomer
FMC63 scFv, sequence (as listed by the source): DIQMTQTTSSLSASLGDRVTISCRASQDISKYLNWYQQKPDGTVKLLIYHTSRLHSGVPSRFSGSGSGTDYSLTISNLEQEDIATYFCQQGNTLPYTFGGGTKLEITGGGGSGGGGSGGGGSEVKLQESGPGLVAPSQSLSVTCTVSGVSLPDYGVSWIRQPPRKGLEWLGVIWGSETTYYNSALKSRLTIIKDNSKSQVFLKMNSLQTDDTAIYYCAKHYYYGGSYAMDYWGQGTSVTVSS
Experimental: FIGS. 10A & 10B provide graphs showing binding of yeast clones expressing the indicated mimotopes to biotinylated FMC63 IgG (FIG. 10A) or biotinylated FMC63 scFv (FIG. 10B) at increasing concentration (0.01-1000 nM).
Identifying specific mimotope clones of varying affinities will provide flexibility in treatments. In order to validate specific sequences, clones were isolated and measured for their affinity to FMC63. Specifically, a subset of mimotope clones were selected from the fixed library sequence described in Example 5. […] Given the FDA-approved CAR is an scFV derived from the parental IgG, mimotope binding to FMC63-scFv monomer was tested using biotinylated FMC63 scFV to measure Kd by FACS (FIG. 10B). […] This screen positively identified mimotope clones with varying affinities to FMC63 which may be used for a tailored vaccine approach.

FMC63 IgG = experiment: Yeast clone staining with biotinylated FMC63 IgG, Kd from MFI (FACS); type: binding, mouse; details: yeast clones, 0.01-1000 nM biotinylated FMC63 IgG
FMC63 IgG, sequence (as listed by the source): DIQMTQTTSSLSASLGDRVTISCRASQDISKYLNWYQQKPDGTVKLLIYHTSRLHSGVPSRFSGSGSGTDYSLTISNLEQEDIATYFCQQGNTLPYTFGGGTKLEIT
FMC63 IgG, sequence (as listed by the source): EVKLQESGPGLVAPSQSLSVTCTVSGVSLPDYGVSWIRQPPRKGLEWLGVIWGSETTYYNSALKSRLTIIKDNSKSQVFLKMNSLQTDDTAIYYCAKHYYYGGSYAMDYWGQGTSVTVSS
From the text: In order to validate specific sequences, clones were isolated and measured for their affinity to FMC63. Specifically, a subset of mimotope clones were selected from the fixed library sequence described in Example 5.

FMC63 CAR T cells = experiment: Long-term in vivo boosting, CAR T expansion in peripheral blood; details: day 13; vaccinations day 2 and day 9 with 25 μg cyclic-di-GMP; lymphodepleted mice; vs control mice
From the text: FIG. 19A depicts a timeline for administration of CD45.1+ donor FMC63 CAR T cells to CD45.2+ recipient mice on Day 1 following lymphodepletion on day 0. The mice were further administered a first dose of amph-mimotope or bivalent amph-mimotope on Day 2 and a second dose on Day 9. Peripheral blood was obtained from the mice on Day 13 and expansion of CD45.1+ CAR T cells were quantified by flow cytometry. FIG. 19B provides plots measuring the percentage of total T cells expressing CD45.1 and FMC63 CAR in peripheral blood isolated on day 13 from mice treated according to FIG. 19A. […] Control mice received no vaccination. […] Briefly, CD45.2^+ recipient mice received lymphodepeletion preconditioning (sublethal irradiation, 500cGy) on day 0. The mice were then administered 1×10^6 CD45.1^+ donor FMC63 CAR T cells on day 1, followed by two vaccinations on day 2 and day 9 using the following formulation: • (i) 10 ug of monovalent amph-mimotope (Amph-K-C2)+25 μg of cyclic-di-GMP in 1×PBS; or • (ii) 20 ug of amph-Bi-F12-mimotope (PEG4 or PEG8)+25 μg of cyclic-di-GMP in 1×PBS. Control mice received no vaccination. On day 13, peripheral blood was collected for analysis of CAR T expansion in response to amph-mimotope vaccine boosting by flow cytometry. CAR T cells were defined as CD45.1^+CAR^+ cells and were quantified as proportion of total CD8+ T cells.

Kd (FMC63 scFv)	Kd (FMC63 IgG)	Substance	expansion of CAR T cells (CD45.1+CAR+ of total CD8+ T cells) in peripheral blood (FMC63 CAR T cells)
> 1 µM	> 1 µM	D12 (RICPWSCRAP; Synthetic FMC63 Mimotope (D12)) [Clone D12]	
		amph-bi-F12-peg8 (GGGSASRICPWNCKEL; not fully specified (C-terminus); cysteine pairing not given here; also: bivalent amphiphile conjugate via C-terminal PEG8 linker)	highest level of proliferation
